Reference: patent US20240116884A1, “Salts of Viloxazine” (Apotex Inc., priority 2022, published 2024)

Conditions: uncapped samples, 40° C./75% RH stability chamber, at least 3 weeks
Method: PXRD diffractograms were recorded on a Bruker D8 Discover powder X-ray diffractometer (Bruker AXS LLC, Karlsruhe, Germany). The generator was a Incoatec Microfocus Source (IμS) Cu tube (λ=1.54060 Å) with a voltage of 50 kV and current of 1.00 mA, using a divergence slit of 0.1 mm and collimator of 2.0 mm. For each sample, two frames were collected using a still scan with a PILATUS3 R 100K-A detector at the distance of 294.2 mm from the sample. Raw data were evaluated using the program DIFFRAC.EVA (Bruker AXS LLC, Karlsruhe, Germany).

Which “change in the crystalline form by PXRD (form stability)” value (“change in the crystalline form by PXRD” for short) does the source give for `CCOc1ccccc1OCC1CNCCO1.CCOc1ccccc1OCC1CNCCO1.O=C(O)C(O)C(O)C(=O)O` (racemic) [viloxazine hemi-DL-tartrate Form APO-I, viloxazine hemi-DL-tartrate] here?
Its value is “no change in the crystalline form occurred”.

With `CCOc1ccccc1OCC1CNCCO1.O=S(=O)(O)c1ccc2ccccc2c1` (stereo not drawn) [viloxazine naphthalene-2-sulfonate] as the compound, how does the “change in the crystalline form by PXRD” value read?
The value was “no change in the crystalline form occurred”.

For “viloxazine fumarate [viloxazine fumarate Form APO-I]”, which “change in the crystalline form by PXRD” value is on record?
The value was “no change in the crystalline form occurred”.
